Measurements: patent publication US9788549B2, “Broad spectrum disinfectant” (DI[…] LLC, priority 2014, dated 2017)

Assays:
[1] = solution has the proper amount of sodium polyphosphate
[2] = atmospheric pressure, 20° C.; cited from earlier work

In the case of `[O][Cl+][O-]` [Chlorine dioxide], the “stability of ClO2 in solution” value [1] is given as “remain stable for years” and the solubility in water [2] is given as “approximately 70 g/l”.
